The structures appear in SMILES notation. Some results are limits rather than exact numbers.

What is called Ki is a dissociation constant, usually derived from enzyme kinetics or from competition with a known ligand.

For this experiment, the target named is T1, human Prostanoid EP4 Receptor (EP4) (Homo sapiens, UniProt P35408).
T1 construct: expressed in transfected cells; host or cells: HEK293 (G418 selection); membranes prepared by differential centrifugation
T1 sequence (P35408 whole entry): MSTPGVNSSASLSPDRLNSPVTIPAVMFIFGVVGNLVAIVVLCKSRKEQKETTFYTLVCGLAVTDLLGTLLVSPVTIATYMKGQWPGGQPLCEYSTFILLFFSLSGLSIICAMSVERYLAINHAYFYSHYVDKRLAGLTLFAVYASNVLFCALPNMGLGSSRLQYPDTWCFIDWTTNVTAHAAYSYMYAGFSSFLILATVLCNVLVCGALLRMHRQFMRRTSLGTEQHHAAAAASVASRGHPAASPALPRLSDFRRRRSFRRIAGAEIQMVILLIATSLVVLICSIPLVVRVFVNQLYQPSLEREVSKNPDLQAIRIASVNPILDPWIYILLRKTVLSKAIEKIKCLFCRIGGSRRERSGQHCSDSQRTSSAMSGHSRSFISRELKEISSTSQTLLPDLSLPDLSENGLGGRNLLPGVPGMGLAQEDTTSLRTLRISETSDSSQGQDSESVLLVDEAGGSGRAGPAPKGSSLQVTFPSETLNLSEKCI
The experiment is described as follows: Prostanoid EP4 binding assay (3H-prostaglandin E2 displacement, cell membranes). The conditions noted are these: HEK293 cell membranes with human EP4, 3H-prostaglandin E2, 24° C. The protocol: HEK293 cells transfected with human Prostanoid EP4 Receptor (EP4) are maintained in DMEM supplemented with L-Glutamine, 10% FBS and 300 μg/ml G418. Cells are harvested and membranes prepared by differential centrifugation, following lysis of the cells in the presence of protease inhibitors, for use in the receptor binding assay. EP4 binding assay is performed in 50 mM HEPES pH7.4, 5 mM MgCl2, 1 mM CaCl2) and 0.2% BSA. Testing compounds are diluted with DMSO to make 8-point 4-fold serial dilution. Cell membrane homogenates are incubated at 24° C. with ^3H-prostaglandin E2 in the absence or presence of the testing compound in assay buffer. Nonspecific binding (Low control: LC) and total binding (High control: HC) are determined in the presence or absence of saturated cold ligand Prostaglandin E2 (PGE2). Specific binding is calculated by subtracting nonspecific binding from total binding. When binding assays are completed, the reaction mixture is filtered rapidly under vacuum through glass fiber filters (GF/C, Packard) presoaked with 0.5% BSA for at least 0.5 hour at room temperature and then washed for 4 times with cold wash buffer (50 mM HEPES pH7.4, 500 mM NaCl, 0.1% BSA) using a 96-sample Perkin Elmer Filtermate Harvester (Unifilter, Packard). The filters are dried for 1 hour at 50 degrees then counted for radioactivity in a scintillation counter using Perkin Elmer Microscint 20 cocktail. ^3H trapped on filter is counted using Perkin Elmer MicroBeta2 Reader. Inhibition is calculated using following equation: % Inhibition=(1−(Assay well−Average_LC)/(Average_HC−Average_LC))×100%. The results are expressed as a percent inhibition of the control radioligand specific binding. Data are analyzed and IC50 is calculated using GraphPad Prism 5 and the model “log(inhibitor) vs. response—Variable slope”. The binding affinity of the compounds is determined by using the Cheng and Prusoff equation Ki=IC50/(1+[radioligand]/Kd).
Compound `CC(C)Cn1nc(C(=O)N[C@@H](C)c2ccc(C(=O)O)cc2)c2c(Cc3ccc(C(F)(F)F)cc3)cccc21` [Compound 23, 4-[(1S)-1-[[1-isobutyl-4-[[4-(trifluoromethyl)phenyl]methyl]indazole-3-carbonyl]amino]ethyl]benzoic acid] showed a Ki of under 100 nM. With `CC(C)Cn1nc(C(=O)N[C@H]2CC3(C2)C[C@H](C(=O)O)C3)c2c(Cc3ccc(C(F)(F)F)cc3)cccc21` (stereo partly drawn) [Compound 24, trans-2-[[1-isobutyl-4-[[4-(trifluoromethyl)phenyl]methyl]indazole-3-carbonyl]amino]spiro[3.3]heptane-6-carboxylic acid] the figure was under 100 nM; with `CC(C)Cn1nc(C(=O)NC23CC(CC(=O)O)(C2)C3)c2c(Cc3ccc(C(F)(F)F)cc3)cccc21` [Compound 25, 2-[3-[[1-isobutyl-4-[[4-(trifluoromethyl)phenyl]methyl]indazole-3-carbonyl]amino]-1-bicyclo[1.1.1]pentanyl]acetic acid], under 100 nM; with `O=C(O)c1ccc(C2(NC(=O)c3cnn4cccc(Cc5ccc(C(F)(F)F)cc5)c34)CC2)cc1` [Compound 26, 4-[1-[[4-[[4-(trifluoromethyl)phenyl]methyl]pyrazolo[1,5-a]pyridine-3-carbonyl]amino]cyclopropyl]benzoic acid], under 100 nM. Take `C[C@@H](NC(=O)c1cnn2cccc(Cc3ccc(C(F)(F)F)cc3)c12)c1ccc(C(=O)O)cc1` [Compound 27, 4-[(1R)-1-[[4-[[4-(trifluoromethyl)phenyl]methyl]pyrazolo[1,5-a]pyridine-3-carbonyl]amino]ethyl]benzoic acid]: the inhibitory constant (Ki) was under 100 nM. With `O=C(O)Cc1ccc(NC(=O)c2cnn3cccc(Cc4ccc(C(F)(F)F)cc4)c23)cc1` [Compound 28, 2-[4-[[4-[[4-(trifluoromethyl)phenyl]methyl]pyrazolo[1,5-a]pyridine-3-carbonyl]amino]phenyl]acetic acid] the figure was 100 to 499 nM; with `CC(C)n1nc2cccc(Cc3ccc(C(F)(F)F)cc3)c2c1C(=O)N[C@@H](C)c1ccc(C(=O)O)cc1` [Compound 29, 4-[(1S)-1-[[2-isopropyl-4-[[4-(trifluoromethyl)phenyl]methyl]indazole-3-carbonyl]amino]ethyl]benzoic acid], under 100 nM. With `CC(C)Cn1nc2cccc(Cc3ccc(C(F)(F)F)cc3)c2c1C(=O)N[C@@H](C)c1ccc(C(=O)O)cc1` [Compound 30, 4-[(1S)-1-[[2-isobutyl-4-[[4-(trifluoromethyl)phenyl]methyl]indazole-3-carbonyl]amino]ethyl]benzoic acid] the figure was 100 to 499 nM; with `O=C(Nc1ccc(C2(C(=O)O)CC2)cc1)c1cnn2cccc(Cc3ccc(C(F)(F)F)cc3)c12` [Compound 31, 1-[4-[[4-[[4-(trifluoromethyl)phenyl]methyl]pyrazolo[1,5-a]pyridine-3-carbonyl]amino]phenyl]cyclopropanecarboxylic acid], over 500 nM. Next, `O=C(N[C@H]1CC[C@@H](C(=O)O)CC1)c1cnn2cccc(Cc3ccc(C(F)(F)F)cc3)c12` [Compound 32, (1s,4s)-4-[[4-[[4-(trifluoromethyl)phenyl]methyl]pyrazolo[1,5-a]pyridine-3-carbonyl]amino]cyclohexanecarboxylic acid]: over 500 nM; `O=C(N[C@H]1CC[C@H](C(=O)O)CC1)c1cnn2cccc(Cc3ccc(C(F)(F)F)cc3)c12` [Compound 33, (1r,4r)-4-[[4-[[4-(trifluoromethyl)phenyl]methyl]pyrazolo[1,5-a]pyridine-3-carbonyl]amino]cyclohexanecarboxylic acid]: 100 to 499 nM; `O=C(O)CC1CCC(NC(=O)c2cnn3cccc(Cc4ccc(C(F)(F)F)cc4)c23)CC1` (stereo not shown) [Compound 34, 2-[4-[[4-[[4-(trifluoromethyl)phenyl]methyl]pyrazolo[1,5-a]pyridine-3-carbonyl]amino]cyclohexyl]acetic acid]: under 100 nM. In turn, `O=C(O)CC12CCC(NC(=O)c3cnn4cccc(Cc5ccc(C(F)(F)F)cc5)c34)(CC1)CC2` [Compound 35, 2-(4-(4-(4-(trifluoromethyl)benzyl)pyrazolo[1,5-a]pyridine-3-carboxamido)bicyclo[2.2.2]octan-1-yl)acetic acid] returned an inhibitory constant (Ki) of 100 to 499 nM. In turn, `O=C(NC12CCC(C(=O)O)(CC1)CC2)c1cnn2cccc(Cc3ccc(C(F)(F)F)cc3)c12` [Compound 36, 4-[[4-[[4-(trifluoromethyl)phenyl]methyl]pyrazolo[1,5-a]pyridine-3-carbonyl]amino]bicyclo[2.2.2]octane-1-carboxylic acid] yielded a Ki of 100 to 499 nM.

`O=C(O)CC1CCC(NC(=O)c2cnn3cccc(Cc4ccc(C(F)(F)F)cc4)c23)C1` (stereo not shown) [Compound 37, 2-[3-[[4-[[4-(trifluoromethyl)phenyl]methyl]pyrazolo[1,5-a]pyridine-3-carbonyl]amino]cyclopentyl]acetic acid] gave a Ki of under 100 nM. `O=C(O)C[C@H]1CC[C@H](NC(=O)c2cnn3cccc(Cc4ccc(C(F)(F)F)cc4)c23)CC1` [Compound 38, 2-((1r,4r)-4-(4-(4-(trifluoromethyl)benzyl)pyrazolo[1,5-a]pyridine-3-carboxamido)cyclohexyl)acetic acid]: the Ki is under 100 nM.

In turn, `O=C(N[C@H]1CC[C@@H](C(=O)O)C1)c1cnn2cccc(Cc3ccc(C(F)(F)F)cc3)c12` [Compound 39, (1R,3S)-3-[[4-[[4-(trifluoromethyl)phenyl]methyl]pyrazolo[1,5-a]pyridine-3-carbonyl]amino]cyclopentanecarboxylic acid] returned a Ki of under 100 nM.

`O=C(NC[C@H]1CC[C@H](C(=O)O)CC1)c1cnn2cccc(Cc3ccc(C(F)(F)F)cc3)c12` [Compound 40, (1r,4r)-4-[[[4-[[4-(trifluoromethyl)phenyl]methyl]pyrazolo[1,5-a]pyridine-3-carbonyl]amino]methyl]cyclohexanecarboxylic acid] came in with a Ki of under 100 nM.

`CCn1cc(C(=O)N[C@H]2CC3(C2)C[C@H](C(=O)O)C3)c2c(Cc3ccc(C(F)(F)F)cc3)cccc21` (stereo partly drawn) [Compound 41, trans-2-[[1-ethyl-4-[[4-(trifluoromethyl)phenyl]methyl]indole-3-carbonyl]amino]spiro[3.3]heptane-6-carboxylic acid] showed a Ki of under 100 nM. Next, `CCn1cc(C(=O)N[C@@H](C)c2ccc(C(=O)O)cc2)c2c(Cc3ccc(C(F)(F)F)cc3)cccc21` [Compound 42, 4-[(1S)-1-[[1-ethyl-4-[[4-(trifluoromethyl)phenyl]methyl]indole-3-carbonyl]amino]ethyl]benzoic acid]: under 100 nM; `C[C@H](NC(=O)c1cn(CCF)c2cccc(Cc3ccc(C(F)(F)F)cc3)c12)c1ccc(C(=O)O)cc1` [Compound 43, 4-[(1S)-1-[[1-(2-fluoroethyl)-4-[[4-(trifluoromethyl)phenyl]methyl]indole-3-carbonyl]amino]ethyl]benzoic acid]: under 100 nM.

On to `O=C(N[C@H]1CC2(C1)C[C@H](C(=O)O)C2)c1cn(CCF)c2cccc(Cc3ccc(C(F)(F)F)cc3)c12` (stereo partly drawn) [Compound 44, trans-2-[[1-(2-fluoroethyl)-4-[[4-(trifluoromethyl)phenyl]methyl]-indole-3-carbonyl]amino]spiro[3.3]heptane-6-carboxylic acid], for which the Ki was under 100 nM.

The values above are taken from patent US20220324803A1 (Teon Therapeutics, Inc., priority 2019, published 2022).
